Data reported in US20220356147A1, “COMPOUNDS AND METHODS FOR POTENTIATING COLISTIN ACTIVITY” (University of Notre Dame du Lac, priority 2019, published 2022).
Several values for one entry are separate records, joined by “and”; a condition that tells them apart may be missing. Equal values may be shown once. Read-outs that look alike come from different tables or passages of the source.

Tests used:
[1] = tested on: A. baumannii 4106 (AB4106); assay: Broth microdilution, colistin potentiation; type: cell-based
Description: (§1) Broth microdilution method for measurement of colistin potentiation: Bacteria were cultured for 4 to 6 hours in CAMHB and diluted to 1.04×10^6 CFU/mL for AB 4106 and 1.96×10^6 CFU/mL for KP B9 in fresh CAMHB. To aliquots (4 mL) was added compound from stock solutions in DMSO. One aliquot was not dosed to allow measurement of the colistin MIC in the absence of compound. A 1 mL aliquot of each sample was dosed with colistin, and from this 200 μL was dispensed into the first row of a 96-well microtiter plate in which all but the final row of subsequent wells was prefilled with 100 μL of the corresponding compound dosed bacterial suspension The final row was filled with media to act as a sterility control and blank. Row one wells were mixed 6-7 times, then, 100 μL was withdrawn and transferred to row two. Row two wells were mixed 6-7 times followed by a 100 μL transfer from row two to row three. This procedure was used to serially dilute the rest of the rows of the microtiter plate, excluding the last prefilled row, which was used to measure growth in the presence of compound alone. Plates were then sealed with GLAD
(§2) Press'n Seal and incubated under stationary conditions at 37° C. […] MIC values were determined as the minimum concentration required to achieve 90% growth inhibition compared to growth in untreated wells.

AB 4106 = assay: Broth microdilution, standalone MIC of compound; type: cell-based, A. baumannii; details: standalone, no colistin, read-out: MIC of compound alone, AB 4106
Description: Broth microdilution method for the determination of minimum inhibitory concentrations: Bacteria were cultured for 4 to 6 hours in CAMHB and subcultured to 1.04×10^6 CFU/mL for AB 4106 and 1.96×10^6 CFU/mL for KP B9 in fresh CAMHB. To aliquots (1 mL) was added compound from stock solutions in DMSO, such that the compound concentration equaled the highest concentration tested. Samples were then dispensed (200 μL) into the first row of a 96-well microtiter plate in which all but the final row of subsequent wells were prefilled with 100 μL of the untreated bacterial subculture. The final row was filled with media to act as a sterility control and blank. Row one wells were mixed 6-7 times, then, 100 μL was withdrawn and transferred to row two. Row two wells were mixed 6-7 times followed by a 100 μL transfer from row two to row three. This procedure was used to serially dilute the rest of the rows of the microtiter plate, excluding the last prefilled row, which was used to measure growth in the absence of compound. Plates were then sealed with GLAD Press'n Seal and incubated under stationary conditions at 37 C. […] MIC values were determined as the minimum concentration required to achieve 90% growth inhibition compared to growth in untreated wells.

AB4106 and KPB9 = assay: Initial screen for colistin resistance suppression, statements in words for both strains; type: cell-based, A. baumannii and K. pneumoniae; details: compound at 5 μM
Description: as §1, §2

AB 4119 = assay: Colistin potentiation, colistin-resistant isolate panel; type: cell-based, A. baumannii
AB 3942 = assay: as above; type: cell-based, A. baumannii
AB 4112 = assay: as above; type: cell-based, A. baumannii
AB 17978 mcr-1 = assay: as above; type: cell-based, A. baumannii
AB 3941 = assay: as above; type: cell-based, A. baumannii
K. pneumoniae B9 (KPB9) = assay: Broth microdilution, colistin potentiation; type: cell-based; set-up: Colistin MIC against KPB9: unit not given here
Description: as §1, §2

[2] = compound at 5 μM, colistin alone 2048 μg/mL
[3] = in presence of compound at 1 μM
[4] = in presence of compound at 3 μM
[5] = in presence of compound at 5 μM

| Molecule | Colistin MIC fold reduction, AB 4106 [1, 2] | MIC (AB 4106; Acinetobacter baumannii, 16 h) | Colistin potentiation activity in words, compared to IMD-0354 (AB4106 and KPB9) | Colistin MIC fold reduction, AB 4106 ([1]; compound at 1 μM) | Colistin MIC fold reduction, AB 4106 ([1]; compound at 3 μM) | also measured |
| --- | --- | --- | --- | --- | --- | --- |
| Nc1cc(NC(=O)c2cc(Cl)ccc2O)ccc1F [Compound 36, N-(3-amino-4-fluorophenyl)-5-chloro-2-hydroxybenzamide] | ≤ 16 fold | > 200 µM | Neither compound displayed significant activity |  |  |  |
| O=C(Nc1ccc(C(F)(F)F)cc1C(F)(F)F)c1cc(Cl)ccc1O [Compound 18] | 1024 fold | > 200 µM | retained activity against KPB9 and AB4106 equivalent to IMD-0354 | 256 fold | 1024 fold |  |
| O=C(Nc1cc(C(F)(F)F)ccc1F)c1cc(Cl)ccc1O [Compound 28] | 1024 fold |  | activity equivalent to IMD-0354 | 256 fold | 1024 fold | Colistin MIC against AB 4106 [1, 3]: 8 µg/mL; Colistin MIC against AB 4106 [1, 4]: 2 µg/mL; Colistin MIC against AB 4106 [1, 5]: 2 µg/mL; Colistin MIC against AB 4119 (AB 4119; compound at 5 μM): 1 µg/mL; Colistin MIC against AB 3942 (AB 3942; compound at 5 μM): 2 µg/mL; MIC (AB 4106): >200 µM; Colistin MIC against AB 4112 (AB 4112; compound at 5 μM): 2 µg/mL; Colistin MIC against AB 17978 mcr-1 (AB 17978 mcr-1; compound at 5 μM): 0.25 µg/mL; Colistin MIC against AB 3941 (AB 3941; compound at 5 μM): 2 µg/mL |
| colistin [reference compound] |  |  |  |  |  | MIC of colistin alone, AB 4119 (AB 4119; absence of adjuvant): 1024 µg/mL; MIC of colistin alone, AB 3942 (AB 3942; absence of adjuvant): > 2048 µg/mL; MIC of colistin alone, AB 4112 (AB 4112; absence of adjuvant): 2048 µg/mL; MIC of colistin alone, AB 17978 mcr-1 (AB 17978 mcr-1; absence of adjuvant): 64 µg/mL; MIC of colistin alone, AB 3941 (AB 3941; absence of adjuvant): 1024 µg/mL |
| O=C(Nc1cc(C(F)(F)F)cc(C(F)(F)F)c1)c1cc(Br)ccc1O [Compound 9] | 1024 fold | > 100 µM | essentially equipotent activity to IMD-0354 | 128 fold | 1024 fold |  |
| O=C(Nc1cc(C(F)(F)F)cc(C(F)(F)F)c1)c1cccc(Cl)c1O [Compound 5] | 512 fold | 100 µM | essentially equipotent activity to IMD-0354 | ≤ 16 fold | 256 fold |  |
| O=C(Nc1ccc(F)cc1C(F)(F)F)c1cc(Cl)ccc1O [Compound 27] | 256 fold | > 200 µM |  |  |  | Colistin MIC against KPB9 (K. pneumoniae B9 (KPB9); compound at 5 μM): 1 |
| O=C(Nc1cc(Br)cc(Br)c1)c1cc(I)ccc1O [Compound 52, N-(3,5-dibromophenyl)-2-hydroxy-5-iodobenzamide] | 2048 fold | > 200 µM |  | 256 fold | 1024 fold | ability to break colistin resistance, KPB9 (K. pneumoniae B9 (KPB9); compound at 500 nM): retained the ability to break colistin resistance; Colistin MIC fold reduction, AB 4119 (AB 4119; compound at 5 μM): (512) fold; Colistin MIC fold reduction, AB 3942 (AB 3942; compound at 5 μM): (≥4096) fold; Colistin MIC fold reduction, AB 4112 (AB 4112; compound at 5 μM): (2048) fold; Colistin MIC fold reduction, AB 17978 mcr-1 (AB 17978 mcr-1; compound at 5 μM): (256) fold; Colistin MIC fold reduction, AB 3941 (AB 3941; compound at 5 μM): (1024) fold |
| O=C(Nc1cc(C(F)(F)F)cc(C(F)(F)F)c1Br)c1cc(Cl)ccc1O [Compound 24] | 4096 fold |  |  | 512 fold | 2048 fold | Colistin MIC against AB 4106 [1, 3]: 4 µg/mL; Colistin MIC against AB 4106 [1, 4]: 1 µg/mL; Colistin MIC against AB 4106 [1, 5]: 1 µg/mL and 0.5 µg/mL; Colistin MIC against AB 4119 (AB 4119; compound at 5 μM): 0.125 µg/mL; Colistin MIC against AB 3942 (AB 3942; compound at 5 μM): 0.5 µg/mL; MIC (AB 4106): >200 µM; Colistin MIC against AB 4112 (AB 4112; compound at 5 μM): 0.25 µg/mL; Colistin MIC against AB 17978 mcr-1 (AB 17978 mcr-1; compound at 5 μM): 0.25 µg/mL; Colistin MIC against AB 3941 (AB 3941; compound at 5 μM): 1 µg/mL |
| O=C(Nc1ccccc1Cl)c1cc(Cl)ccc1O [Compound 39] | 256 fold | > 200 µM | less active |  |  |  |
| O=C(Nc1cc(C(F)(F)F)cc(C(F)(F)F)c1)c1cc(Cl)cc(Cl)c1O [Compound 14] | 512 fold | 100 µM | four-fold less active than 15 | 32 fold | 512 fold |  |
| COc1ccc(NC(=O)c2cc(Cl)ccc2O)cc1 [Compound 38] | ≤ 16 fold | > 200 µM | abolished activity |  |  |  |
| O=C(Nc1cc(C(F)(F)F)ccc1C(F)(F)F)c1cc(Cl)ccc1O [Compound 17] | 1024 fold | > 200 µM | retained activity against KPB9 and AB4106 equivalent to IMD-0354 | 128 fold | 512 fold |  |
| Cc1ccc(NC(=O)c2cc(Cl)ccc2O)cc1Br [Compound 32] | 32 fold | > 200 µM |  |  |  | Colistin MIC against KPB9 (K. pneumoniae B9 (KPB9); compound at 5 μM): 8 |
| Cc1ccc(NC(=O)c2cc(Cl)ccc2O)cc1C [Compound 31] | 32 fold | > 200 µM |  |  |  | Colistin MIC against AB 4106 ([1]; compound at 5 μM, text of b125): 64; Colistin MIC against KPB9 (K. pneumoniae B9 (KPB9); compound at 5 μM): 16 |
| O=C(Nc1cc(C(F)(F)F)cc(C(F)(F)F)c1)c1ccc(O)c(Cl)c1 [Compound 4, N-(3,5-bis(trifluoromethyl)phenyl)-3-chloro-4-hydroxybenzamide] | ≤ 16 fold | > 200 µM | abolished activity |  |  |  |
| COc1ccc(Cl)cc1C(=O)Nc1cc(C(F)(F)F)cc(C(F)(F)F)c1 [Compound 2] | ≤ 16 fold | > 200 µM | abrogated activity |  |  |  |
| O=C(Nc1cc(C(F)(F)F)cc(C(F)(F)F)c1)c1cc(-c2ccccc2)ccc1O [Compound 13] | 512 fold |  |  | 32 fold | 256 fold | Colistin MIC against AB 4106 [1, 3]: 64 µg/mL; Colistin MIC against AB 4106 [1, 4]: 8 µg/mL; Colistin MIC against AB 4106 [1, 5]: 4 µg/mL; Colistin MIC against AB 4119 (AB 4119; compound at 5 μM): 2 µg/mL; Colistin MIC against AB 3942 (AB 3942; compound at 5 μM): 32 µg/mL; MIC (AB 4106): >200 µM; Colistin MIC against AB 4112 (AB 4112; compound at 5 μM): 8 µg/mL; Colistin MIC against AB 17978 mcr-1 (AB 17978 mcr-1; compound at 5 μM): 4 µg/mL; Colistin MIC against AB 3941 (AB 3941; compound at 5 μM): 16 µg/mL |
| O=C(Nc1cc(C(F)(F)F)ccc1C(F)(F)F)c1cc(Cl)cc(Cl)c1O [Compound 61, N-(2,5-bis(trifluoromethyl)phenyl)-3,5-dichloro-2-hydroxybenzamide] | ≤ 16 fold | > 200 µM | returned equipotent activity |  |  |  |
| O=C(Nc1cc(C(F)(F)F)cc(C(F)(F)F)c1)c1cccc(Cl)c1 [Compound 1] | ≤ 16 fold | > 200 µM | abrogated activity |  |  |  |
| O=C(Nc1cc(C(F)(F)F)cc(C(F)(F)F)c1)c1cc(I)ccc1O [Compound 10] | 4096 fold | > 200 µM | essentially equipotent activity to IMD-0354 | 128 fold | 1024 fold | Colistin potentiation activity in words, AB4106 ([1]; compound at 5 μM): superior activity to IMD-0354; Colistin potentiation activity in words, KPB9 (K. pneumoniae B9 (KPB9); compound at 5 μM): equipotent activity |
